Molecules are shown by their SMILES. Some results are limits rather than exact numbers.

The target in this assay is T1, catalytic domain of Human PARP (Homo sapiens, UniProt P09874).
T1 construct: The catalytic domain of Human PARP was cloned and prepared; made in house
T1 sequence (P09874 788-1014 limits assumed): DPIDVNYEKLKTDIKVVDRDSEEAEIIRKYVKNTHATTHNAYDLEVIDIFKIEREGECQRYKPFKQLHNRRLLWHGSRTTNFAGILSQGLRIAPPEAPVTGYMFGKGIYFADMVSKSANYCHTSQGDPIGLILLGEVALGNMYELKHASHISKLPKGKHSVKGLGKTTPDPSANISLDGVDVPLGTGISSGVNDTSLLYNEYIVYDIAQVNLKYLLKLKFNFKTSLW
The assay is described as follows: Biacore surface plasmon resonance affinity assay. The assay is classed as binding. The conditions noted are these: pKD=-log10 KD, KD in mol/L; Biacore T100, 25° C.; read-out: pKD (converted). How it is done: Dissociation Constant (KD) from Surface Plasmon Resonance
The catalytic domain of Human PARP was cloned and prepared as described in Kinoshita, et al. FEBS Letters (2006), 556:43-46. Purified enzyme was stored at −80° C. in 25 mM Tris(hydroxymethyl)aminomethane (‘Tris’) pH 7.4, 150 mM NaCl, 2 mM dithiothreitol (DTT) at a concentration of 6 mg/mL.
Biacore affinity assays for test compounds were conducted on a Biacore T100 (GE Healthcare) as follows. A Series S Sensor Chip CM5 (part number BR-1006-68, GE Healthcare) was activated for amide coupling with an Amine Coupling Kit (part number BR-1000-50, GE Healthcare) as described by the manufacturer. The mobile phase buffer consisted of Biacore buffer HBS-P (part number BR-1003-68, GE Healthcare) supplemented with 1% v/v dimethylsulfoxide (DMSO), 0.5 mM Tris(2-carboxyethyl)phosphine hydrochloride (TCEP), and 5 mM MgCl2. Enzyme samples (2 μL/6 mg/mL) stored at −80° C. were diluted to 0.080 mg/mL with 10 mM 4-morpholineethanesulfonic acid (MES) pH 6.5 and then mounted on the activated Biacore CM5 chip at a flow rate of 10 μL/min for 240 seconds. […] Test compounds were diluted 9 times 2-fold serially in mobile phase buffer (listed above) at 1% v/v DMSO final to generate a concentration gradient bracketing their anticipated KDs. Biacore mounted PARP was given a 1 minute exposure (association phase) to various concentrations of test compounds to observe a steady state equilibrium or an on-rate. The exposure was followed with a dissociation phase of 5 minutes. The association and dissociation phases were at a flow rate of 50 μL/min and a temperature of 25° C.
Parameters Rmax (response at saturation) and KD (binding constant) were calculated through a nonlinear least squares fitting of the equation to the data by use of the Biacore T100 analysis software.
Parameter optimization was through a nonlinear least squares analysis of the association phase Response=Rmax*(1−exp(−(kon[cmpd]+koff)*t)) and dissociation phase Response=[…] by use of the Biacore T100 analysis software. The binding constant KD was calculated from the definition KD=koff/kon
As for `CC(=O)Nc1ccc2c(c1)CN(Cc1ccc3c(c1)NC(=O)C(C)O3)C2` (centres unmarked) [Compound 242, N-(2-((2-Methyl-3-oxo-3,4-dihydro-2H-benzo[b][1,4]oxazin-6-yl)methyl)isoindolin-5-yl)acetamide], the Kd was 1.26 to 10 µM.
On to `O=C1COc2ccc(C(=O)CN3CCC(c4ccccc4)CC3)cc2N1` [Compound 114, 6-(2-(4-Phenylpiperidin-1-yl)acetyl)-2H-benzo[b][1,4]oxazin-3(4H)-one], for which the Kd is 12.6 to 79.4 µM.
Regarding `O=C1COc2ccc(CCN3CCC(c4ccc(Cl)cc4)CC3)cc2N1` [Compound 131, 6-(2-(4-(4-Chlorophenyl)piperidin-1-yl)ethyl)-2H-benzo[b][1,4]oxazin-3(4H)-one], the Kd is 1.26 to 10 µM.
In the case of `C=CCNC(=O)CN1CCN(Cc2ccc3c(c2)NC(=O)C(C)O3)CC1` (centres unmarked) [Compound 174, N-Allyl-2-(4-((2-methyl-3-oxo-3,4-dihydro-2H-benzo[b][1,4]oxazin-6-yl)methyl)piperazin-1-yl)acetamide], the Kd was 1.26 to 10 µM.
As to `CC1Oc2ccc(S(=O)(=O)N3CCCC3)cc2NC1=O` (centres unmarked) [Compound 120, 2-Methyl-6-(pyrrolidin-1-ylsulfonyl)-2H-benzo[b][1,4]oxazin-3(4H)-one], the Kd is at least 100 µM.
`CC(C)NS(=O)(=O)c1cccc(-c2ccc3c(c2)NC(=O)C(C)O3)c1` (centres unmarked) [Compound 149, N-Isopropyl-3-(2-methyl-3-oxo-3,4-dihydro-2H-benzo[b][1,4]oxazin-6-yl)benzenesulfonamide]: the Kd was above 10 µM.
For `CC1Oc2ccc(CN3CCN(CC(=O)NCC4CC4)CC3)cc2NC1=O` (centres unmarked) [Compound 180, N-(Cyclopropylmethyl)-2-(4-((2-methyl-3-oxo-3,4-dihydro-2H-benzo[b][1,4]oxazin-6-yl)methyl)piperazin-1-yl)acetamide], the Kd was above 10 µM.
For the compound `CCC1Oc2ccc(CN3CC=C(c4ccc(Cl)cc4)CC3)cc2NC1=O` (centres unmarked) [Compound 193, 6-((4-(4-Chlorophenyl)-5,6-dihydropyridin-1(2H)-yl)methyl)-2-ethyl-2H-benzo[b][1,4]oxazin-3(4H)-one], the Kd is at least 100 µM.
Take `O=C1Nc2cc(CN3CCN(c4nc5ccccc5[nH]4)CC3)ccc2OC1F` (centres unmarked) [Compound 99, 6-((4-(1H-Benzo[d]imidazol-2-yl)piperazin-1-yl)methyl)-2-fluoro-2H-benzo[b][1,4]oxazin-3(4H)-one]: the Kd is 0.126 to 1 µM.
For `CCC1Oc2ccc(CN3CCC(c4ccccc4N)CC3)cc2NC1=O` (centres unmarked) [Compound 198, 6-((4-(2-Aminophenyl)piperidin-1-yl)methyl)-2-ethyl-2H-benzo[b][1,4]oxazin-3(4H)-one], the Kd is 12.6 to 79.4 µM.
The result for `CC1Oc2ccc(CN3CCC(CCO)CC3)cc2NC1=O` (centres unmarked) [Compound 87, 6-((4-(2-Hydroxyethyl)piperidin-1-yl)methyl)-2-methyl-2H-benzo[b][1,4]oxazin-3(4H)-one] reads 1.26 to 10 µM; that for `CCc1ccc2c(c1)NC(=O)CO2` [Compound 122, 6-Ethyl-2H-benzo[b][1,4]oxazin-3(4H)-one], at least 100 µM; that for `CN(C)C1CCN(CC(=O)c2ccc3c(c2)NC(=O)CO3)CC1` [Compound 113, 6-(2-(4-(Dimethylamino)piperidin-1-yl)acetyl)-2H-benzo[b][1,4]oxazin-3(4H)-one], at least 100 µM.
The result for `CC1Oc2ccc(CN3CCC(N(C)C)CC3)cc2NC1=O` (centres unmarked) [Compound 45, 6-((4-(Dimethylamino)piperidin-1-yl)methyl)-2-methyl-2H-benzo[b][1,4]oxazin-3(4H)-one] reads 0.0126 to 0.1 µM; that for `CC1Oc2cc(CN3CCN(c4ccncc4)CC3)ccc2NC1=O` (centres unmarked) [Compound 202, 2-Methyl-7-((4-(pyridin-4-yl)piperazin-1-yl)methyl)-2H-benzo[b][1,4]oxazin-3(4H)-one], at least 100 µM.
`CC1Oc2ccc(CN3CCCc4ccccc43)cc2NC1=O` (centres unmarked) [Compound 82, 6-((3,4-Dihydroquinolin-1(2H)-yl)methyl)-2-methyl-2H-benzo[b][1,4]oxazin-3(4H)-one]: the Kd is above 10 µM.
In the case of `O=C1COc2ccc(CCN3CC=C(c4ccc(Cl)cc4)CC3)cc2N1` [Compound 127, 6-(2-(4-(4-Chlorophenyl)-5,6-dihydropyridin-1(2H)-yl)ethyl)-2H-benzo[b][1,4]oxazin-3(4H)-one], the Kd is 1.26 to 10 µM.
As for `CC1Oc2cc(CN(C)Cc3ccccc3)ccc2NC1=O` (centres unmarked) [Compound 92, 7-((Benzyl(methyl)amino)methyl)-2-methyl-2H-benzo[b][1,4]oxazin-3(4H)-one], the figure is 12.6 to 79.4 µM; as for `CC1Oc2ccc(CN3CCN(Cc4cccc(Br)c4)CC3)cc2NC1=O` (centres unmarked) [Compound 43, 6-((4-(3-Bromobenzyl)piperazin-1-yl)methyl)-2-methyl-2H-benzo[b][1,4]oxazin-3(4H)-one], 1.26 to 10 µM; as for `CCC1Oc2ccc(CN3CCC(c4nc5ccccc5[nH]4)CC3)cc2NC1=O` (centres unmarked) [Compound 196, 6-((4-(1H-Benzo[d]imidazol-2-yl)piperidin-1-yl)methyl)-2-ethyl-2H-benzo[b][1,4]oxazin-3(4H)-one], at least 100 µM.
Take `CC1Oc2ccc(CN3CCN(c4cccc(C(F)(F)F)c4)CC3)cc2NC1=O` (centres unmarked) [Compound 221, 2-Methyl-6-((4-(3-(trifluoromethyl)phenyl)piperazin-1-yl)methyl)-2H-benzo[b][1,4]oxazin-3(4H)-one]: the Kd was 1.26 to 10 µM.
For the compound `Cc1ccc2c(c1)CCCN2Cc1ccc2c(c1)NC(=O)C(C)O2` (centres unmarked) [Compound 83, 2-Methyl-6-((6-methyl-3,4-dihydroquinolin-1(2H)-yl)methyl)-2H-benzo[b][1,4]oxazin-3(4H)-one], the Kd was above 10 µM.
As for `CC1Oc2ccc(CN3CCN(CC(=O)O)CC3)cc2NC1=O` (centres unmarked) [Compound 168, 2-(4-((2-Methyl-3-oxo-3,4-dihydro-2H-benzo[b][1,4]oxazin-6-yl)methyl)piperazin-1-yl)acetic acid], the Kd is at least 100 µM.
As for `CC1Oc2ccc(CN(C)Cc3ccncc3)cc2NC1=O` (centres unmarked) [Compound 66, 2-Methyl-6-((methyl(pyridin-4-ylmethyl)amino)methyl)-2H-benzo[b][1,4]oxazin-3(4H)-one], the figure is at least 100 µM; as for `CC1Oc2cc(CN3CC[C@H](c4ccccc4)C3)ccc2NC1=O` (stereo partly drawn) [Compound 93, 2-Methyl-7-(((R)-3-phenylpyrrolidin-1-yl)methyl)-2H-benzo[b][1,4]oxazin-3(4H)-one], 1.26 to 10 µM.
As for `O=C1COc2ccc(CNC3CCCCC3)cc2N1` [Compound 28, 6-((Cyclohexylamino)methyl)-2H-benzo[b][1,4]oxazin-3(4H)-one], the Kd is 12.6 to 79.4 µM.
As for `CC1Oc2ccc(CN(C)Cc3cccnc3)cc2NC1=O` (centres unmarked) [Compound 65, 2-Methyl-6-((methyl(pyridin-3-ylmethyl)amino)methyl)-2H-benzo[b][1,4]oxazin-3(4H)-one], the Kd was 12.6 to 79.4 µM.
As for `CC1Oc2ccc(CN3CC=C(c4ccc(F)cc4)CC3)cc2NC1=O` (centres unmarked) [Compound 34, 6-((4-(4-Fluorophenyl)-5,6-dihydropyridin-1(2H)-yl)methyl)-2-methyl-2H-benzo[b][1,4]oxazin-3(4H)-one], the figure is 0.0126 to 0.1 µM; as for `O=C1COc2ccc(C(=O)Nc3ccccc3)cc2N1` [Compound 110, 3-Oxo-N-phenyl-3,4-dihydro-2H-benzo[b][1,4]oxazine-6-carboxamide], at least 100 µM.
As for `CC1Oc2ccc(CN3CCC(CC(=O)O)CC3)cc2NC1=O` (centres unmarked) [Compound 172, 2-(1-((2-Methyl-3-oxo-3,4-dihydro-2H-benzo[b][1,4]oxazin-6-yl)methyl)piperidin-4-yl)acetic acid], the figure is above 10 µM; as for `CN(C)C1CCN(C(=O)c2ccc3c(c2)NC(=O)CO3)CC1` [Compound 106, 6-(4-(Dimethylamino)piperidine-1-carbonyl)-2H-benzo[b][1,4]oxazin-3(4H)-one], at least 100 µM.
Consider `CC1Oc2ccc(CN(C)c3ccccn3)cc2NC1=O` (centres unmarked) [Compound 67, 2-Methyl-6-((methyl(pyridin-2-yl)amino)methyl)-2H-benzo[b][1,4]oxazin-3(4H)-one], for which the Kd is 12.6 to 79.4 µM.
On to `CC1Oc2cc(CNc3ncc(-c4ccccc4)n3C)ccc2NC1=O` (centres unmarked) [Compound 94, 2-Methyl-7-((1-methyl-5-phenyl-1H-imidazol-2-ylamino)methyl)-2H-benzo[b][1,4]oxazin-3(4H)-one], for which the Kd is 1.26 to 10 µM.
As to `CCNC(=O)c1cccc(-c2ccc3c(c2)NC(=O)C(C)O3)c1` (centres unmarked) [Compound 144, N-Ethyl-3-(2-methyl-3-oxo-3,4-dihydro-2H-benzo[b][1,4]oxazin-6-yl)benzamide], the Kd is 12.6 to 79.4 µM.
Regarding `CC(C)CNC(=O)CN1CCN(Cc2ccc3c(c2)NC(=O)C(C)O3)CC1` (centres unmarked) [Compound 173, N-Isobutyl-2-(4-((2-methyl-3-oxo-3,4-dihydro-2H-benzo[b][1,4]oxazin-6-yl)methyl)piperazin-1-yl)acetamide], the Kd was 1.26 to 10 µM.
